From patent US20260199484A1, “PROTAC DEGRADERS OF MLLT1 AND/OR MLLT3” (DARK BLUE THERAPEUTICS LTD, priority 2024, published 2026)

How the values were obtained:
[1] = molecular target: T1, MLLT1 (Homo sapiens, UniProt Q03111); test: MLLT1 degradation assay in MV4-11 cells (JESS, 24 h); type: cell-based; parameters: endogenous in cells; host or cells: MV4-11 (ATCC CRL-9591); settings: vs DMSO control
T1 sequence (Q03111 1-559): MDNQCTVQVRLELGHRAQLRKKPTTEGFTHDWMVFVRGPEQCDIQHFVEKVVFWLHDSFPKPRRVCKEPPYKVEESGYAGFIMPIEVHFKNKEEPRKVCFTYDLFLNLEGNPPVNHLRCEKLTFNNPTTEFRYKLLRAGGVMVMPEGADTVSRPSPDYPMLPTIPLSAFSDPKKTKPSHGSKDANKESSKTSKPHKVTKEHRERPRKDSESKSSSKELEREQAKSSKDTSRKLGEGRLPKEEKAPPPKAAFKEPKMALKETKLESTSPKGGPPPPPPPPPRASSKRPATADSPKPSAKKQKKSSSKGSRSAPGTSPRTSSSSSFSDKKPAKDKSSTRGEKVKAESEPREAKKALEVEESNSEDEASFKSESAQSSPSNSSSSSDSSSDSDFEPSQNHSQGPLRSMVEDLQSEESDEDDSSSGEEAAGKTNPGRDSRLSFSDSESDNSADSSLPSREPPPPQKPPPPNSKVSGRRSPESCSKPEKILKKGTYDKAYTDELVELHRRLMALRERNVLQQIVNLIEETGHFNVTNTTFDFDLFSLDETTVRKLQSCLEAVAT
Method: MLLT1 degradation efficacy of compounds was tested in an automated chemiluminescent detection system (JESS, Cat #004-650). MV4-11 (#CRL-9591, ATCC) cells were seeded at a density of 1.2 million cells/well in a non-treated 6-well cell culture plate in 2.4 mL of complete medium (IMDM+10% FBS+1× Penicillin-Streptomycin). 10 mM DMSO stocks were prepared, and cells were treated with three concentrations of test compounds viz. 1000, 100 and 10 nM at a final DMSO concentration of 0.1% and incubated for 24 h at 37° C., 5% CO2. Post incubation, cells were centrifuged, washed with HBSS and lysed in 70 μL of RIPA buffer supplemented with Protease inhibitors (sc-24948; Santa Cruz). Subsequently, protein estimation was done using BCA protein assay kit (23225; Pierce). 4 ug protein lysate (4 uL of 1 ug/uL lysate) was loaded into each well of the JESS cartridge (SM-W001; Bio-techne) and the JESS run was performed using 1:900 dilution of anti-human MLLT1 antibody (14893; Cell signaling technology) and 1:1200 dilution of anti-human GAPDH antibody (2118; Cell signaling technology) with anti-rabbit secondary detection module (DM-001; Bio-Techne). Post run, data were analysed using “Compass for SW” software for chemiluminescent detection. The peak area for each band was used for the calculation of MLLT1 degradation with respect to DMSO control. Data is shown as “MLLT1% degradation”. • Category A: A≥75% degradation • Category B: 50%≤B<75% degradation • Category C: 25%≤C<50% degradation • Category D: D<25% degradation

[2] = test system: MV4-11 cells; test: MV4-11 cellular proliferative assay, Assay Format A (CellTiter-Glo, 120 h); type: cell-based; settings: Homo sapiens, Assay format A, 120 h, read-out: IC50 (MV4-11 cellular proliferative assay)
Method: An MV4-11 proliferation assay was used to test the ability of compounds to reduce cell viability. MV4-11 cells (ATCC #CRL9591) were grown in IMDM medium (11510596, Gibco) supplemented with 10% fetal bovine serum (F7524, Gibco) and 1% Penicillin/Streptomycin (15140-122, Gibco) at 37° C. with 5% CO2. Cells were seeded in 384-well Elplasia plates (4447, Corning) at a density of 50 cells/well and treated with vehicle (DMSO) or compounds (10 serial semi-log dilutions, 30 μM as top concentration).
After 120 hours of treatment, cells were incubated for 10 min at RT with the CellTiter-Glo (CTG) reagent (G7571, Promega). Measurement of the luminescence signal was performed on a microplate reader (Ensight, PerkinElmer). CTG reagent measures the amount of ATP, which is directly proportional to the number of cells, to determine the number of viable cells in culture.
The data were analysed as follows:
[formula] • where x is the measured raw signal value of a well, (cr) is the median of the measured signal values for the Central Reference (DMSO) wells on a plate, (sr) is the median of the measured signal values for the Scale Reference (reference compound) wells on a plate.
[formula] • where the experimental set-up assumes the Hill parameters in certain ranges: S0~Central Reference (CR) from normalization (=Bottom), Sinf~Scale Reference (SR) from normalization (=Top), nHill ~1, AC50~within the measured concentration range.

SMILES | MLLT1% Degradation @ 0.01 μM [1] | MLLT1% Degradation @ 0.1 μM [1] | MLLT1% Degradation @ 1 μM [1] | IC50 [2] [nM]
Cc1nn(CCCCCCCCNc2cccc3c2C(=O)N(C2CCC(=O)NC2=O)C3=O)c2cc(C(=O)Nc3cc4[nH]c(C5CCCN5C)cc4cn3)ccc12 (racemic) [Example 2, rac-1-(8-{[2-(2,6-dioxopiperidin-3-yl)-1,3-dioxoisoindol-4-yl]amino}octyl)-3-methyl-N-[2-(1-methylpyrrolidin-2-yl)-1H-pyrrolo[3,2-c]pyridin-6-yl]indazole-6-carboxamide] | B (Category B: 50%≤B<75% degradation) | A (Category A: A≥75% degradation) | A (Category A: A≥75% degradation) | < 100
Cc1nn(CCCCCCCCNc2cccc3c2C(=O)N(C2CCC(=O)NC2=O)C3=O)c2cc(C(=O)Nc3cc4[nH]c([C@H]5CCCN5C)cc4cn3)ccc12 (stereo partly drawn) [Example 3, 1-(8-{[2-(2,6-dioxopiperidin-3-yl)-1,3-dioxoisoindol-4-yl]amino}octyl)-3-methyl-N-{2-[(2R)-1-methylpyrrolidin-2-yl]-1H-pyrrolo[3,2-c]pyridin-6-yl}indazole-6-carboxamide] | B (Category B: 50%≤B<75% degradation) | A (Category A: A≥75% degradation) | A (Category A: A≥75% degradation) | < 100
Cc1nn(CCCCCC#Cc2cccc3c2n(C)c(=O)n3C2CCC(=O)NC2=O)c2cc(C(=O)Nc3cc4[nH]c([C@H]5CCCN5C)cc4cn3)ccc12 (stereo partly drawn) [Example 11, 1-{7-[1-(2,6-dioxopiperidin-3-yl)-3-methyl-2-oxo-1,3-benzodiazol-4-yl]hept-6-yn-1-yl}-3-methyl-N-{2-[(2R)-1-methylpyrrolidin-2-yl]-1H-pyrrolo[3,2-c]pyridin-6-yl}indazole-6-carboxamide] | B (Category B: 50%≤B<75% degradation) | B (Category B: 50%≤B<75% degradation) | B (Category B: 50%≤B<75% degradation) | < 100
Cc1nn(CCCNc2cccc3c2C(=O)N(C2CCC(=O)NC2=O)C3=O)c2cc(C(=O)Nc3cc4[nH]c([C@H]5CCCN5C)cc4cn3)ccc12 (stereo partly drawn) [Example 13, 1-(3-((2-(2,6-dioxopiperidin-3-yl)-1,3-dioxoisoindolin-4-yl)amino)propyl)-3-methyl-N-(2-((R)-1-methylpyrrolidin-2-yl)-1H-pyrrolo[3,2-c]pyridin-6-yl)-1H-indazole-6-carboxamide] |  |  |  | < 100
Cc1nn(CCCCCCCCNc2ccc3c(c2)C(=O)N(C2CCC(=O)NC2=O)C3=O)c2cc(C(=O)Nc3cc4[nH]c([C@H]5CCCN5C)cc4cn3)ccc12 (stereo partly drawn) [Example 14, 1-(8-{[2-(2,6-dioxopiperidin-3-yl)-1,3-dioxoisoindol-5-yl]amino}octyl)-3-methyl-N-{2-[(2R)-1-methylpyrrolidin-2-yl]-1H-pyrrolo[3,2-c]pyridin-6-yl}indazole-6-carboxamide] |  |  |  | < 100
Cc1nn(CCCCCCCCNc2ccc3c(c2)C(=O)N(C2CCC(=O)NC2=O)C3=O)c2cc(C(=O)Nc3cc4[nH]c([C@@H]5CCCN5C)cc4cn3)ccc12 (stereo partly drawn) [Example 15, 1-(8-{[2-(2,6-dioxopiperidin-3-yl)-1,3-dioxoisoindol-5-yl]amino}octyl)-3-methyl-N-{2-[(2S)-1-methylpyrrolidin-2-yl]-1H-pyrrolo[3,2-c]pyridin-6-yl}indazole-6-carboxamide] | D (Category D: D<25% degradation) | A (Category A: A≥75% degradation) | A (Category A: A≥75% degradation) | < 100
Cc1nn(CCCCCCCCNc2cccc3c2CN(C2CCC(=O)NC2=O)C3=O)c2cc(C(=O)Nc3cc4[nH]c([C@H]5CCCN5C)cc4cn3)ccc12 (stereo partly drawn) [Example 16, 1-(8-{[2-(2,6-dioxopiperidin-3-yl)-1-oxo-3H-isoindol-4-yl]amino}octyl)-3-methyl-N-{2-[(2R)-1-methylpyrrolidin-2-yl]-1H-pyrrolo[3,2-c]pyridin-6-yl}indazole-6-carboxamide] | A (Category A: A≥75% degradation) | A (Category A: A≥75% degradation) | A (Category A: A≥75% degradation) | < 100
Cc1nn(CCCCCCCCNc2cccc3c2CN(C2CCC(=O)NC2=O)C3=O)c2cc(C(=O)Nc3cc4[nH]c([C@@H]5CCCN5C)cc4cn3)ccc12 (stereo partly drawn) [Example 17, 1-(8-{[2-(2,6-dioxopiperidin-3-yl)-1-oxo-3H-isoindol-4-yl]amino}octyl)-3-methyl-N-{2-[(2S)-1-methylpyrrolidin-2-yl]-1H-pyrrolo[3,2-c]pyridin-6-yl}indazole-6-carboxamide] |  |  |  | < 100
Cc1nn(CCCCCCCCNc2cccc3c2C(=O)N(C2CCC(=O)NC2=O)C3=O)c2cc(C(=O)Nc3cc4[nH]c([C@H]5CCCN5C)c(Cl)c4cn3)ccc12 (stereo partly drawn) [Example 18, N-(3-chloro-2-((R)-1-methylpyrrolidin-2-yl)-1H-pyrrolo[3,2-c]pyridin-6-yl)-1-(8-((2-(2,6-dioxopiperidin-3-yl)-1,3-dioxoisoindolin-4-yl)amino)octyl)-3-methyl-1H-indazole-6-carboxamide] | A (Category A: A≥75% degradation) | A (Category A: A≥75% degradation) | A (Category A: A≥75% degradation) | < 100
Cc1nn(CCCCN2CCN(c3ccc4c(c3)C(=O)N(C3CCC(=O)NC3=O)C4=O)CC2)c2cc(C(=O)Nc3cc4[nH]c([C@H]5CCCN5C)cc4cn3)ccc12 (stereo partly drawn) [Example 19, 1-(4-{4-[2-(2,6-dioxopiperidin-3-yl)-1,3-dioxoisoindol-5-yl]piperazin-1-yl}butyl)-3-methyl-N-{2-[(2R)-1-methylpyrrolidin-2-yl]-1H-pyrrolo[3,2-c]pyridin-6-yl}indazole-6-carboxamide] |  |  |  | < 100
Cc1nn(CCCCNc2cccc3c2C(=O)N(C2CCC(=O)NC2=O)C3=O)c2cc(C(=O)Nc3cc4[nH]c([C@H]5CCCN5C)cc4cn3)ccc12 (stereo partly drawn) [Example 21, 1-(4-((2-(2,6-dioxopiperidin-3-yl)-1,3-dioxoisoindolin-4-yl)amino)butyl)-3-methyl-N-(2-((R)-1-methylpyrrolidin-2-yl)-1H-pyrrolo[3,2-c]pyridin-6-yl)-1H-indazole-6-carboxamide] | A (Category A: A≥75% degradation) | A (Category A: A≥75% degradation) | A (Category A: A≥75% degradation) | < 100
Cc1nn(CCCCCCNc2cccc3c2C(=O)N(C2CCC(=O)NC2=O)C3=O)c2cc(C(=O)Nc3cc4[nH]c([C@H]5CCCN5C)cc4cn3)ccc12 (stereo partly drawn) [Example 22, 1-(6-{[2-(2,6-dioxopiperidin-3-yl)-1,3-dioxoisoindol-4-yl]amino}hexyl)-3-methyl-N-{2-[(2R)-1-methylpyrrolidin-2-yl]-1H-pyrrolo[3,2-c]pyridin-6-yl}indazole-6-carboxamide] | A (Category A: A≥75% degradation) | A (Category A: A≥75% degradation) | A (Category A: A≥75% degradation) | < 100
